Calls of active or inactive are those of the source. The rule behind the calls is not given here.
Columns and labels:
[1] = Plasma concentration in RjOrl:Swiss CD-1 mouse at 10 mg/kg, po administered as single dose measured after 4 to 24 hrs by LC-MS analysis; format: ADME, organism-based; conditions: in vivo
[2] = Cmax in RjOrl:Swiss CD-1 mouse at 10 mg/kg, po administered as single dose measured after 1 to 24 hrs by LC-MS analysis; format: ADME, organism-based; parameters: dose 10 mg/kg, route oral; conditions: in vivo
[3] = Tmax in RjOrl:Swiss CD-1 mouse at 10 mg/kg, po administered as single dose measured after 1 to 24 hrs by LC-MS analysis; format: ADME, organism-based; conditions: in vivo
[4] = Toxicity in RjOrl:Swiss CD-1 mouse assessed as induction of adverse effect at 10 mg/kg, po administered as single dose; format: organism-based; conditions: in vivo
[5] = Half life in RjOrl:Swiss CD-1 mouse at 10 mg/kg, po administered as single dose measured after 1 to 24 hrs by LC-MS analysis; format: ADME, organism-based; conditions: in vivo
[6] = molecular target: T1, Peroxisome proliferator-activated receptor gamma (Homo sapiens, UniProt P37231); assay: Agonist activity at recombinant human pFA-CMV fused PPARgamma expressed in HEK293T cells transfected with pFR-luciferase plasmid and pRL-SV40 plasmid incubated for 14 to 16 hrs by dual glo luciferase reporter gene assay; format: cell-based, HEK-293T
T1 sequence (P37231 whole entry): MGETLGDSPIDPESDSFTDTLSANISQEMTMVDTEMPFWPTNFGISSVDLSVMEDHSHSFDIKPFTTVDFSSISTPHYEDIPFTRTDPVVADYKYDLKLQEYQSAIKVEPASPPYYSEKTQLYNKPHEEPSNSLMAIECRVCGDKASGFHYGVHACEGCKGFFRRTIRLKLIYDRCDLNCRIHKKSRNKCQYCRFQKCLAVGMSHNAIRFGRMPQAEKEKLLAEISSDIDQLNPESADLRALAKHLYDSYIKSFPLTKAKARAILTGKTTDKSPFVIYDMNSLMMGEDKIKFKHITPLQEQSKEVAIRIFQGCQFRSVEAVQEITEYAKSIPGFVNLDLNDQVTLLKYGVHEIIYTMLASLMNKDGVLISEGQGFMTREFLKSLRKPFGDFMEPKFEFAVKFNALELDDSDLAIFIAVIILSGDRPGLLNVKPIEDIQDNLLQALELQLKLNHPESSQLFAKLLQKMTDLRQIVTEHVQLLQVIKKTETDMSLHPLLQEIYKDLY

[7] = molecular target: T2, Retinoic acid receptor RXR-alpha (Homo sapiens, UniProt P19793); assay: Agonist activity at recombinant human pFA-CMV fused RXRalpha LBD expressed in HEK293T cells transfected with pFR-luciferase plasmid and pRL-SV40 plasmid incubated for 14 to 16 hrs by dual glo luciferase reporter gene assay; format: cell-based, HEK-293T; conditions: hek-293t
T2 sequence (P19793 whole entry): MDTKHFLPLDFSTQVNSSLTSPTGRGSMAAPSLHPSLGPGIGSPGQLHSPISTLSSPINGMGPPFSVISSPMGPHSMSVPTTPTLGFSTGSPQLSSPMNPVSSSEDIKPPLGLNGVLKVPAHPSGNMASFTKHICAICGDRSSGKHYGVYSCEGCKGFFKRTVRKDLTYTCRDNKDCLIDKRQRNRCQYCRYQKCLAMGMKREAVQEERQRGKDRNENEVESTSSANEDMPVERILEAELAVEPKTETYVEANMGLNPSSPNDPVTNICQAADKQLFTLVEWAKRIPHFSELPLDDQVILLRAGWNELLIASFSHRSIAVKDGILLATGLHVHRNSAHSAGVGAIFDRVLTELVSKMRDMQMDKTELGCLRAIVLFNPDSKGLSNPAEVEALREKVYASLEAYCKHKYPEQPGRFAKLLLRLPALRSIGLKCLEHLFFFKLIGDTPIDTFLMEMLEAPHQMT

[8] = molecular target: T1, Peroxisome proliferator-activated receptor gamma; assay: Binding affinity to recombinant PPARgamma LBD (unknown origin) by isothermal titration calorimetry
[9] = Drug level in human serum; format: ADME, cell-free; conditions: read-out: Drug uptake
[10] = Drug level in euthyroid human serum by RIA; format: ADME, cell-free; conditions: read-out: Drug uptake
HEK-293T = assay: Activation of renilla luciferase expressed in HEK293T cells at 3 uM incubated for 14 to 16 hrs by reporter gene assay; format: cell-based; conditions: Renilla reniformis

Compound	concentration [1] [nM]	Cmax [2] [ng/mL]	Tmax [3] [h]	Activity [4]	half-life [5] [h]	EC50 [6] [µM]	EC50 [7]	Kd [8] [µM]	concentration [9] [nM]	concentration [10] [nM]	Activity (HEK-293T)
O=C(O)Cc1cc(Br)c(Oc2cc(I)c(O)c(I)c2)c(I)c1	40	3180	1	Non-Toxic	19.4	–	–	–	–	–	–
N[C@@H](Cc1cc(Br)c(Oc2cc(I)c(O)c(I)c2)c(I)c1)C(=O)O	40	4480	2	Non-Toxic	8.7	12.9	–	–	–	–	–
N[C@@H](Cc1cc(I)c(Oc2ccc(O)c(I)c2)c(I)c1)C(=O)O [LIOTHYRONINE]	–	–	–	–	–	5.8	Not Active	0.71	1.3 to 2.1	–	–
N[C@@H](Cc1ccc(Oc2cc(I)c(O)c(I)c2)c(I)c1)C(=O)O [REVERSE TRIIODOTHYRONINE]	–	–	–	–	–	3.8	Not Active	0.63	–	–	–
O=C(O)Cc1cc(I)c(Oc2ccc(O)c(I)c2)c(I)c1 [TIRATRICOL]	–	–	–	–	–	–	–	–	–	0.24	inactive
